Laboratory results as given in the METLIN SMRT retention time set (Domingo-Almenara et al. 2019).

Test: gradient 5% acetonitrile 3 min, to 50% in 2 min, to 85% in 15 min, held 3 min, 100 µL/min
Conditions: column: Zorbax Extend-C18 2.1 x 50 mm; eluents: water / acetonitrile, 0.1% formic acid
In short: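 Retention times of pure standards were taken from adduct peaks that were selected by computer and manually inspected. Over 3 months, mixtures of ~100 molecules were run by HPLC–quadrupole time-of-flight mass spectrometry in positive and negative ionization mode. The Zorbax Extend-C18 column (2.1 × 50 mm, 1.8 μm) ran at 100 μL/min in water and acetonitrile, each containing 0.1% formic acid, with 40 μL dead volume and 900 μL dwell volume.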

SMILES | RP-LC retention time [s]
C=C(C)CN1CC[C@]23c4c5ccc(O)c4O[C@H]2c2[nH]c4ccccc4c2C[C@@]3(O)C1C5 | 703
CCOc1ccc(C2Cn3nnc(-c4nc(-c5ccccc5)no4)c3CO2)cc1 (stereo unspecified) | 1200
Nc1nc(N2CCOCC2)ncc1C(=O)Nc1ccccc1 | 611
CCC(=O)Nc1ccc2c(c1)CN(C(=O)CCc1ccccc1)C(C(=O)N1CCCC1)C2 (stereo unspecified) | 708
CC(=O)N1CCc2cc(-c3ccc(C(=O)N4CCN(c5ccccn5)CC4)cc3)ccc21 | 611
Cc1ccc(NC(=O)C(=O)c2ccc[nH]2)c(Br)c1 | 1060
CNC(=O)c1noc([C@@H]2CC(F)(F)CN2C(=O)c2cccn2C)n1 | 712
CNC(=O)c1cccc(Nc2c(-c3ccc(N(C)C)cc3)nc3cnccn23)c1 | 610
Cc1cccc(C)c1NC(=O)NC1CCN(c2nc3ccccc3n(C)c2=O)CC1 | 838
O=C(Nc1nnc(SCc2nnc(-c3ccc4c(c3)OCO4)o2)s1)c1cccs1 | 815
COc1ccc(NS(=O)(=O)c2cc3n(c2)CCCNC3=O)c(C)c1 | 640
Cc1cccc(Oc2nccn3c(=O)n(CC(=O)NCCC4=CCCCC4)nc23)c1C | 1000
COc1ccc(-c2csc(NC(=O)CCn3c(=O)sc4ccccc43)n2)cc1OC | 917
COc1cccc(CNC(=O)C2(C)CCN(C(=O)Nc3ccccc3C(F)(F)F)CC2)c1 | 806
CCN(CC)CCNC(=O)c1ccnc(-c2cccs2)c1 | 597
CC(C)Oc1cncc(C(N)=O)c1 | 583
CCCCN(CC)C(=O)Cn1nc(Cc2ccncc2)c2ccccc2c1=O | 624
COc1ccc(CNC(=O)Nc2ccccc2NC(=O)c2cccc(Cl)c2)cc1OC | 808
CCOC(=O)CC(=O)CSc1nc2sc(C)cc2c(=O)n1C | 961
CC1(C)CC(O)CC(C)(C)N1CC(O)COc1ccc(Cl)cc1Cl (stereo unspecified) | 590
CCC(=O)N1CCc2cc(N3CC(C(=O)NC4CCCCC4)CC3=O)ccc21 (stereo unspecified) | 728
CCN(CCCNC(=O)c1nnc(-c2ccc(S(=O)(=O)N3CCCC3)cc2)o1)c1ccccc1 | 714
Cc1cccc(-c2nc(-c3nnn(-c4ccccc4)c3C)no2)c1 | 1140

SMILES | RP-LC retention time [s]
COc1ccc(-c2nc(NCCCN3CCCC(C)C3)c3ccccc3n2)cc1 (stereo unspecified) | 572
Cc1cc(C)n(CCNc2nc3c(F)cc(F)cc3s2)n1 | 732
CCn1cc(S(=O)(=O)N2CC(c3nc(CCOCc4ccccc4)no3)C2)cn1 | 856
COC(=O)C(C)n1nc2nc(Nc3ccc(C)c(F)c3)cc(C)n2c1=O (stereo unspecified) | 1100
CCCNC(=O)C1CCN(S(=O)(=O)c2cc(C(=O)N3CCCCCC3)cs2)CC1 | 783
O=C(NCC1CC1)C1CCN(C(=O)c2ncn3c2COC(c2ccccc2)C3)CC1 (stereo unspecified) | 681
Cc1ccc(C)c(N2CCN(c3ccnc(SCC(=O)NC4CCCC4)n3)CC2)c1 | 886
COCCNC(=O)NCC(O)Cc1ccccc1 (stereo unspecified) | 591
CCc1nn2c(CNC(=O)c3cccc(Br)c3)c(C)nc2s1 | 686
COc1ccc(N2CC(c3noc(-c4ccccc4F)n3)CC2=O)cc1OC (stereo unspecified) | 818
CCn1ncc(Cl)c1C(=O)N1CCCC1c1cccc(F)c1 (stereo unspecified) | 922
O=C(NCc1ccc(Cl)cc1)C1CCN(c2cnc3nccnc3c2)CC1 | 713
COc1cccc2nnc(NC(=O)CCC(=O)NCC(C)C)n12 | 587
COC(=O)Cn1nc2ccc(S(=O)(=O)N3CCSCC3)cn2c1=O | 711
Cc1ccc(Cn2cccc2C(=O)C(=O)N2CCN(c3ccccn3)CC2)cc1 | 690
COc1cc(C(=O)Nc2nc(-c3ccc4c(c3)N(C)C(=O)CO4)c(C)s2)cc(OC)c1OC | 964
C#CCNc1ccc(C(=O)OCC)cc1 | 879
O=C(c1ccoc1)N1CC(Oc2ccc(-c3nc(-c4ccccc4)no3)cc2)C1 | 1040
Nc1cc(C2CCN(C(=O)Nc3ccccc3Br)CC2)no1 | 706
COc1ccc(NC(=O)N2CCc3nc(-c4ccc(F)cc4)ncc3C2)cc1 | 906
COc1ccccc1NC(=O)N1CCCC(C)(C(=O)NCc2ccc(C)cc2)C1 (stereo unspecified) | 898
CCC(CO)NCc1ccc(-c2ccc(Br)cc2)o1 (stereo unspecified) | 683
CCNC(=O)c1cnn(-c2cc(-c3nc(C4CC4)no3)ccn2)c1C | 826

SMILES | RP-LC retention time [s]
O=C(c1nnc(-c2ccc(S(=O)(=O)N3CCCC3)cc2)o1)N1CCN(C2CCCCC2)CC1 | 658
Cc1ccc(CSc2nccc3c2ccn3CC(=O)NCc2cccnc2)cc1 | 823
CC(C)C(=O)N1CCc2cc(C(N)=O)ccc21 | 637
CCCOc1ccc(NC(=O)c2cc(=O)c3ccc(C)cc3o2)c2cccnc12 | 686
Cc1cnn(CC(=O)N2CCc3nn(CC4CC4)c(=O)n3CC2)c1 | 617
O=C(NCC1CC1)c1cn(-c2ncccc2-c2nc(-c3ccccc3)no2)cn1 | 848
Cc1ccc2c(c1)N(Cc1ccccc1C)N=C(C(=O)N1CCOCC1)S2(=O)=O | 877
COc1ccc(-n2c(=O)c(C(=O)NCC(C)C)c(O)c3cccnc32)cc1 | 1160
CCCN(C)C(=O)C1CCCN(c2cnc3nccnc3c2)C1 (stereo unspecified) | 655
O=C(NCc1nc(-c2ccc(Cl)cc2)no1)NC1CCCCC1 | 916
Cc1cc(C(=O)NC(C)C)c2cccc(Cl)c2n1 | 718
Cc1ccc(C(=O)N2C[C@@H]3C[C@H](NC(=O)c4cccs4)[C@H]2C3)cn1 | 581
C=CCNC(=O)C1CCN(C(=O)Nc2ccc(NC(=O)Nc3ccccc3)cc2)CC1 | 679
NC(=O)C1CCN(c2ccc3cccc(OCc4ccccc4Cl)c3n2)CC1 | 593
Cc1cc(C)cc(N2CCC(NC(=O)Nc3cc(C)ccc3C)C2=O)c1 (stereo unspecified) | 955
O=c1n(CC2CC2)nc2n1CCC(NS(=O)(=O)c1ccccc1)CC2 (stereo unspecified) | 706
O=C(C1=CCN(Cc2cccc(F)c2)CC1)N1CCN(c2ccccc2F)CC1 | 666
COc1ccc(-n2nc(SCC(=O)Nc3cc(F)ccc3F)ccc2=O)cc1 | 756
Cc1sc(NC(=O)c2ccccc2)nc1-c1ccc2c(c1)N(C)C(=O)CO2 | 952
O=C(Nc1ccc(Cl)cc1)C1CCCN(c2ncnc3c2nc2n3CCCCC2)C1 (stereo unspecified) | 877
CC(C)c1nc2c(c(=O)n1CC(=O)Nc1ccccc1)CCN(Cc1ccccc1)C2 | 674
Cc1ccc2c(c1)N(S(C)(=O)=O)CCC(C(=O)NCCC1=CCCCC1)O2 (stereo unspecified) | 993
Cc1ccc(-n2cc(C(=O)Oc3cccnc3)c3ccccc3c2=O)cc1 | 978

SMILES | RP-LC retention time [s]
CN1CCC(NC(=O)c2ccc3c(c2)N(S(=O)(=O)c2ccccc2F)CC3)CC1 | 626
Cc1nnc(N2CCCC(C(=O)NCc3cccc(F)c3)C2)c2nn(-c3ccc(Cl)cc3)c(C)c12 (stereo unspecified) | 757
Cc1cc(S(=O)(=O)N(C)CC2CCOCC2)ccc1Cl | 963
CCC(=O)Nc1ccc(-n2cnc(C(=O)N3CCN(c4ccc(OC)cc4)CC3)c2)nc1 | 653
Cc1ccc(NC(=O)N2CC(c3nc(C)no3)C3(CCOCC3)C2)c(Cl)c1 (stereo unspecified) | 796
O=C(NC1CC1)C1CCCN(c2nccn3nc(-c4ccccc4Cl)cc23)C1 (stereo unspecified) | 788
CCCNC(=O)C1CCN(c2nc3ccc(-c4cccs4)nc3s2)CC1 | 872
OC1(c2ccccn2)CCOC2(CCN(Cc3cccc(F)c3)CC2)C1 (stereo unspecified) | 554
CCOC(=O)c1noc2nc(C)nc(N3CCN(c4cccc(Cl)c4)CC3)c12 | 1220
O=C(NC1CCCC1)c1nc(C(=O)N2CCN(c3ccccc3)CC2)cs1 | 897
O=S(=O)(Nc1cccc(C(F)(F)F)c1)c1ccc2c(c1)-c1oncc1CO2 | 998
CNC(=O)C1CCCN(c2nc3ncn(CC(=O)Nc4ccccc4C(F)(F)F)c(=O)c3s2)C1 (stereo unspecified) | 663
CSc1ccc(NC(=O)c2cc3c(s2)CN(C2CC2)C3)cc1 | 644
CNC(=O)C1Cc2ccccc2N1S(=O)(=O)c1cccc(C(F)(F)F)c1 (stereo unspecified) | 802
CC(=O)c1cccc(NC(=O)C2CC(=O)N(c3ccc4c(c3)CCN4C(C)=O)C2)c1 (stereo unspecified) | 668
CCN(CCNC(=O)C1CCCN(c2ncnc3c2nc2n3CCCCC2)C1)Cc1ccccc1 (stereo unspecified) | 639
COc1cc(OC)cc(N2C(=O)C3N=NN(Cc4nc(-c5ccccc5Cl)no4)C3C2=O)c1 (stereo unspecified) | 967
CCCNC(=O)C(=O)NCC(c1ccc2c(c1)CCCN2C)N1CCCCC1 (stereo unspecified) | 598
CCOC(=O)c1noc2ncnc(NCC3CCN(Cc4cccc(F)c4)CC3)c12 | 705
O=C(c1cc(-c2cccnc2)n[nH]1)N1CCN(C(=O)C2CC2)CC1 | 565
CCN1CCN(CCCNC(=O)Cn2c(-c3cccs3)cc3ccccc32)CC1 | 722
c1ccc(CNc2c(-c3ccc4c(c3)OCCO4)nc3ncccn23)cc1 | 710
